{"source": "patent US20190365680A1", "about": "“USE OF EP4 RECEPTOR ANTAGONISTS FOR THE TREATMENT OF NASH-ASSOCIATED LIVER CANCER” (AskAt Inc., priority 2016, published 2019)", "key": {"[1]": {"assay": "Body weight in the NASH-associated mouse liver cancer model", "type": "in vivo", "conditions": "30 mg/kg QD from 19 to 30 weeks of age; weight at the age of 30 weeks", "protocol": "FIG. 4 depicts the average body weight of the vehicle-treated group and Compound A-treated group at the age of 30 weeks. Data are represented as means ±SD.\n(§1) This mouse model was developed by treating with DMBA, 7,12-dimethylbenz(a)anthracene, and by feeding a high fat diet (HFD) (NPL 15). […] In this experiment, Compound A 30 mg/kg QD was administered to the mice every day from 19 weeks of age to 30 weeks of age (FIG. 1). As a control, a separate group of mice were treated only with a vehicle and no active ingredient."}, "[2]": {"system": "obesity-induced NASH-associated liver cancer", "assay": "Obesity-induced (DMBA + high fat diet) NASH-associated mouse liver cancer model: liver tumor development", "type": "in vivo", "protocol": "FIG. 1 depicts a mouse model timeline developed by treating with 7,12-dimethylbenz(a)anthracene (“DMBA”), and by feeding with a high fat diet (HFD). Compound A was administered to the mice every day from 19 weeks of age to 30 weeks of age and then euthanized (“Eut”).\nFIG. 2 is macroscopic photographs of the liver isolated from the vehicle-treated mice (left side) and Compound A-treated mice (right side). […] Compound A or a vehicle (n=5, each) were treated to the mice every day from 19 weeks of age to 30 weeks of age. Arrowheads identify hepatocellular carcinomas (HCCs).\nFIG. 3 depicts the average liver tumor numbers and the relative size distribution (classified as >6 mm, 2-6 mm, ≤2 mm). “NS” means not significant.\nC57/BL6 mice were purchased from CLEA Japan Inc. The Tlr2^−/− mice (C57/BL6) were purchased from Oriental Yeast Co. Ltd.\nHematoxylin and eosin staining and immunofluorescence analysis were performed as previously described (Yoshimoto et al., Nature, 2013, 499:97-101).\nP values less than 0.05 were considered significant. “NS” indicates not significant.\nas §1"}, "[3]": {"system": "immune cells obtained from mouse livers", "conditions": "liver; 30 mg/kg QD from 19 to 30 weeks of age; vs vehicle", "protocol": "FIG. 5A depicts flow cytometry analysis of immune cells between vehicle-treated mice or Compound A-treated mice. The percentages of total CD11c^hi MHC class II (MHC II)^hi, CD11b^+ CD11c^hi MHC II^hi, or CD103^+ CD11c^hi MHC II^hi cells were analyzed by flow cytometry. Data are represented as means ±SEM.\nFIG. 6A depicts the percentages of CD3^+ CD4^+ Foxp3^+, CD3^+ CD4^+ Foxp3^−, CD3^+ CD8^+ cells analyzed by flow cytometry. The ratio of CD8^+ T cells to CD4^+ Foxp3^+ Tregs was calculated. Data are represented as means ±SEM. NS=not significant, *p<0.05, **p<0.01.\nIn FIG. 7A, the percentages of CD69^+ CD8^+ cells were analyzed by flow cytometry (*p<0.05, **p<0.01).\nIn FIG. 8A, the percentages of PD-1^+ CD8^+ cells were analyzed by flow cytometry (*p<0.05, **p<0.01).\nImmune cells were obtained from mouse livers and were subjected to measuring cytokine production and flow cytometric analysis.\nData were analyzed by unpaired t-test with Welch correction (two-side) or Man-Whitney test (two-side). P values less than 0.05 were considered significant. “NS” indicates not significant.\nThe impact of EP4 blockage on the prevalence and activation status of immune cells was assessed."}}, "data": [{"smiles": "C[C@H](NC(=O)c1cc(Cl)cnc1Oc1cccc(F)c1)c1ccc(C(=O)O)cc1", "note": "[Compound A, 4-[(1S)-1-({[5-chloro-2-(3-fluorophenoxy)pyridin-3-yl]carbonyl}amino)ethyl]-benzoic acid]", "values": [{"measurement": "body weight", "setting": "[1]", "value": "did not influence"}, {"measurement": "Hepatocellular carcinoma (HCC) development compared to vehicle-treated mice", "setting": "[2]; C57/BL6 mice, DMBA + HFD, 30 mg/kg QD every day from 19 to 30 weeks of age", "value": "strongly reduced"}, {"measurement": "Tumor colony sized more than 6 mm", "setting": "[2]; DMBA + HFD mice, treated every day from 19 to 30 weeks of age", "value": "completely disappeared"}, {"measurement": "tumor number in the liver compared to vehicle-treated mice", "setting": "[2]; DMBA + HFD mice, treated every day from 19 to 30 weeks of age, n=5", "value": "significantly inhibited"}, {"measurement": "frequency of CD4+Foxp3+ regulatory T cells (Tregs)", "setting": "[3]", "value": "significantly reduced"}, {"measurement": "frequency of CD8+ T cells", "setting": "[3]", "value": "not changed"}, {"measurement": "frequency of CD11b+ DCs", "setting": "[3]", "value": "not changed"}, {"measurement": "frequency of CD11chi MHC class IIhi dendritic cells (DCs)", "setting": "[3]", "value": "not changed"}, {"measurement": "number of CD8+ T cells expressing programmed cell death-1 (PD-1)", "setting": "[3]", "value": "significantly reduced"}, {"measurement": "number of CD8+ T cells expressing the activation marker CD69", "setting": "[3]", "value": "significantly increased"}, {"measurement": "population of CD103+ DCs", "setting": "[3]", "value": "increased"}, {"measurement": "ratio of CD8+ T cells to Tregs", "setting": "[3]", "value": "increased"}]}]}
